Source: patent US20240301319A1, “PERFUMING COMPOSITIONS” (FIRMNICH SA, priority 2017, published 2024)

Legend:
[1] = Volatility of perfuming compounds (Tables 4 to 10), with top/middle/bottom note type; assay type: physicochemical
In short: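 Volatility is expressed in μg/l in air. Top notes are 70,000 to 100 μg/l, middle notes 99 to 50 μg/l, and bottom notes 49 to 0.1 μg/l. Compounds are grouped by olfactive family: watery, green, fruity, citrus, sweet, gourmand and woody.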

[2] = Odor threshold and odor value of perfuming compounds (Tables 4 to 10)
[3] = Table 6, perfuming compounds having a fruity note
[4] = Table 6, perfuming compounds having a fruity note, note type by volatility
[5] = Table 8, perfuming compounds having a sweet note
[6] = Table 8, perfuming compounds having a sweet note, note type by volatility
[7] = Table 9, perfuming compounds having a gourmand note, note type by volatility
[8] = Table 10, perfuming compounds having a woody note, note type by volatility
[9] = Table 4, watery note, top, middle or bottom note
[10] = Table 4, watery note, equals volatility divided by odor threshold
[11] = note type (Top/Middle/Bottom) by volatility, perfuming compounds having a green note
[12] = perfuming compounds having a green note

Compound: CCCCCCCC1CCCC(=O)O1 (racemic) [(+−)-6-heptyltetrahydro-2H-pyran-2-one]
- Volatility [1, 3]: 0.90 μg/l air
- Type [1, 4]: Bottom
- Volatility [1, 5]: 0.90 μg/l air
- Type [1, 6]: Bottom
- Volatility ([1]; Table 9, gourmand note): 0.90 μg/l air
- Type [1, 7]: Bottom
- Odor Threshold [2, 3]: 1.27E−04 μg/l air
- Odor Value [2, 3]: 7.06E+03
- Odor Threshold [2, 5]: 1.27E−04 μg/l air
- Odor Value [2, 5]: 7.06E+03
- Odor Threshold ([2]; Table 9, gourmand note): 1.27E−04 μg/l air

Compound: CC/C(=C\C[C@H]1CC=C(C)C1(C)C)CO
- Type [1, 8]: Bottom
- Volatility ([1]; Table 10, woody note): 2.75 μg/l air
- Odor Threshold ([2]; Table 10, woody note): 2.41E−05 μg/l air

Compound: CCCCCCCCCCCC=O [DODECANAL]
- Volatility (μg/l air) ([1]; Table 4, watery note): 144.79 μg/l air
- Type [1, 9]: TOP (perfuming compounds having a volatility ranging from 70,000 to 100 μg/l in air are referred to as “top notes”)
- Odor Threshold (μg/l air) ([2]; Table 4, watery note): 9.90E−04 μg/l air
- Odor Value [2, 10]: 1.46E+05

Compound: CC(CC=O)CC(C)(C)C (racemic) [(+−)-3,5,5-TRIMETHYLHEXANAL]
- Type [1, 11]: Top
- Volatility (μg/l air) [1, 12]: 12045.92 μg/l air
- Odor Threshold (μg/l air) [2, 12]: 9.37E−03 μg/l air

Compound: CCOC(=O)/C=C/c1ccccc1 [ETHYL (E)-3-PHENYL-2-PROPENOATE]
- Volatility [1, 3]: 20.55 μg/l air
- Type [1, 4]: Bottom
- Odor Threshold [2, 3]: 2.38E−05 μg/l air
- Odor Value [2, 3]: 8.62E+05

Compound: CC(=O)/C=C/C1=C(C)CCCC1(C)C [(3E)-4-(2,6,6-trimethyl-1-cyclohexen-1-yl)-3-buten-2-one]
- Type [1, 8]: Bottom
- Volatility ([1]; Table 10, woody note): 35.41 μg/l air
- Odor Threshold ([2]; Table 10, woody note): 3.58E−05 μg/l air

Compound: CC(C)=CCCC1=CCC(C)(C=O)CC1 (racemic)
- Volatility (μg/l air) ([1]; Table 4, watery note): 26.54 μg/l air
- Type [1, 9]: bottom (perfuming compounds having a volatility ranging from 49 to 0.1 μg/l in air are referred to as “bottom notes”)
- Odor Threshold (μg/l air) ([2]; Table 4, watery note): 2.72E−02 μg/l air
- Odor Value [2, 10]: 9.76E+02

Compound: CC(C)CC1CC(C)(O)CCO1 (racemic) [(+−)-TETRAHYDRO-2-ISOBUTYL-4-METHYL-4(2H)-PYRANOL]
- Volatility (μg/l air) ([1]; Table 4, watery note): 79.79 μg/l air
- Type [1, 9]: middle (perfuming compounds having a volatility ranging from 99 to 50 μg/l in air are referred to as “middle notes”)
- Odor Threshold (μg/l air) ([2]; Table 4, watery note): 1.35E−02 μg/l air
- Odor Value [2, 10]: 5.91E+03

Compound: Cc1cnc(C)c(C)n1 [2,3,5-TRIMETHYLPYRAZINE]
- Volatility [1, 5]: 7897.31 μg/l air
- Type [1, 6]: Top
- Odor Threshold [2, 5]: 2.82E−04 μg/l air
- Odor Value [2, 5]: 2.80E+07

Compound: CC/C=C\CCOC(=O)c1ccccc1 [(3Z)-3-hexen-1-yl benzoate]
- Volatility [1, 3]: 11.05 μg/l air
- Type [1, 4]: Bottom
- Volatility (μg/l air) ([1]; Table 7, citrus note): 11.05 μg/l air
- Type ([1]; Table 7, citrus note, top, middle or bottom note): Bottom
- Type [1, 11]: Bottom
- Volatility (μg/l air) [1, 12]: 11.05 μg/l air
- Odor Threshold [2, 3]: 4.37E−02 μg/l air
- Odor Value [2, 3]: 2.53E+02
- Odor Threshold (μg/l air) ([2]; Table 7, citrus note): 4.37E−02 μg/l air
- Odor Value ([2]; Table 7, citrus note, equals volatility divided by odor threshold): 2.53E+02
- Odor Threshold (μg/l air) [2, 12]: 4.37E−02 μg/l air

Compound: C/C=C(\C)C(=O)OCCCCCC [hexyl (2E)-2-methyl-2-butenoate]
- Volatility [1, 3]: 256.81 μg/l air
- Type [1, 4]: TOP (perfuming compounds having a volatility ranging from 70,000 to 100 μg/l in air are referred to as “top notes”)
- Volatility [1, 5]: 256.81 μg/l air
- Type [1, 6]: Top
- Type [1, 11]: Top
- Volatility (μg/l air) [1, 12]: 256.81 μg/l air
- Odor Threshold [2, 5]: 1.16E−02 μg/l air
- Odor Value [2, 5]: 2.22E+04
- Odor Threshold (μg/l air) [2, 12]: 1.16E−02 μg/l air

Compound: CC(C)C(=O)OCCc1ccccc1 [2-PHENYLETHYL ISOBUTYRATE]
- Volatility [1, 3]: 67.38 μg/l air
- Type [1, 4]: Middle
- Volatility [1, 5]: 67.38 μg/l air
- Type [1, 6]: Middle
- Volatility ([1]; Table 9, gourmand note): 67.38 μg/l air
- Type [1, 7]: Middle
- Odor Threshold [2, 3]: 6.70E−03 μg/l air
- Odor Value [2, 3]: 1.01E+04
- Odor Threshold [2, 5]: 6.70E−03 μg/l air
- Odor Value [2, 5]: 1.01E+04
- Odor Threshold ([2]; Table 9, gourmand note): 6.70E−03 μg/l air

Compound: C=CCOC(=O)COC1CCCCC1 [ALLYL (CYCLOHEXYLOXY)ACETATE]
- Volatility [1, 3]: 47.01 μg/l air
- Type [1, 4]: Bottom
- Type [1, 11]: Bottom
- Volatility (μg/l air) [1, 12]: 47.01 μg/l air
- Odor Threshold [2, 3]: 4.66E−05 μg/l air
- Odor Value [2, 3]: 1.01E+06
- Odor Threshold (μg/l air) [2, 12]: 4.66E−05 μg/l air

Compound: CC1(C)C2C[C@H]3CCC(=O)C=C3[C@@H]1C2 (single isomer, unassigned; (+))
- Type [1, 8]: Bottom
- Volatility ([1]; Table 10, woody note): 4.86 μg/l air
- Odor Threshold ([2]; Table 10, woody note): 2.86E−05 μg/l air
